Data from PubChem BioAssay (NCI).
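Interpolation was linear, between the two tested concentrations surrounding the appropriate level; five concentrations were tested over 48 hours in 96-well plates. GI50 = concentration required for 50% inhibition of growth. TGI marks complete inhibition of growth.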

What was measured:
Experiment in all cases: inhibition of tumour cell growth, NCI panel, 48 h
NCI-H23 lung = test system: NCI-H23 lung
U251 CNS = test system: U251 CNS
SW-620 colon = test system: SW-620 colon
LOX IMVI melanoma = test system: LOX IMVI melanoma
UACC-257 melanoma = test system: UACC-257 melanoma
SNB-19 CNS = test system: SNB-19 CNS
HT29 colon = test system: HT29 colon
SF-295 CNS = test system: SF-295 CNS
SK-MEL-28 melanoma = test system: SK-MEL-28 melanoma
SF-539 CNS = test system: SF-539 CNS

| SMILES | GI50 (NCI-H23 lung) [nM] | TGI (NCI-H23 lung) [µM] | GI50 (U251 CNS) [µM] | TGI (U251 CNS) [µM] | GI50 (SW-620 colon) [µM] | TGI (SW-620 colon) [µM] | GI50 (LOX IMVI melanoma) [µM] | TGI (LOX IMVI melanoma) [µM] | GI50 (UACC-257 melanoma) [µM] | TGI (UACC-257 melanoma) [µM] | GI50 (SNB-19 CNS) [µM] | TGI (SNB-19 CNS) [µM] | GI50 (HT29 colon) [µM] | TGI (HT29 colon) [µM] | GI50 (SF-295 CNS) [µM] | TGI (SF-295 CNS) [µM] | GI50 (SK-MEL-28 melanoma) [nM] | TGI (SK-MEL-28 melanoma) [µM] | GI50 (SF-539 CNS) [µM] | TGI (SF-539 CNS) [µM] |
| --- | --- | --- | --- | --- | --- | --- | --- | --- | --- | --- | --- | --- | --- | --- | --- | --- | --- | --- | --- | --- |
| CC12OC(CC(O)C1O)n1c3ccccc3c3c4c(c5c6ccccc6n2c5c31)C(=O)N(CCN1CCOCC1)C4=O (stereo unspecified) | 1050 | 4.87 | 0.604 | 5.65 | 0.626 | 7.42 | 0.425 | 1.29 | 1.97 | 7.64 | 1.46 | 13.9 | 0.968 | 6.83 | 0.598 | 3.17 | 2160 | 8.57 | – | – |
| COC(=O)c1c[nH]c2cc(OC(C)C)c(OC(C)C)cc2c1=O | > 100000 | > 100 | > 100 | > 100 | > 100 | > 100 | > 100 | > 100 | > 100 | > 100 | > 100 | > 100 | > 100 | > 100 | – | – | > 100000 | > 100 | > 100 | > 100 |
| CN(C)NC(=O)/C(=C/c1ccc(Cl)cc1)NC(=O)c1ccccc1 | – | > 100 | – | > 100 | – | – | – | > 100 | – | > 100 | – | > 100 | – | > 100 | – | > 100 | – | > 100 | – | > 100 |
| CC1OC(n2cc(C(F)(F)F)c(=O)[nH]c2=O)C=CC1=O (stereo unspecified) | – | 33 | – | – | – | 35.9 | – | 33 | – | 38.8 | – | 30.6 | – | 54.6 | – | 81.5 | – | 38.2 | – | 35.2 |
| CC(=O)OCC1OC(n2cccnc2=O)C(OC(C)=O)C1OC(C)=O (stereo unspecified) | – | – | – | > 100 | – | > 100 | – | > 100 | – | > 100 | – | > 100 | – | > 100 | – | – | – | > 100 | – | – |
| C[N+](C)(C)CC(=O)N/N=C(\Cc1nc2ccc([N+](=O)[O-])cc2[nH]c1=O)C(=O)Nc1nc2ccc([N+](=O)[O-])cc2s1 | – | > 100 | – | > 100 | – | > 100 | – | > 100 | – | > 100 | – | – | – | > 100 | – | > 100 | – | > 100 | – | > 100 |
| CCC12C=CCN(CCc3c([nH]c4ccccc34)/C=C\1)C2 (stereo unspecified) | – | > 100 | – | > 100 | – | > 100 | – | > 100 | – | > 100 | – | > 100 | – | > 100 | – | > 100 | – | – | – | > 100 |
| COC(=O)C1C(C(=O)O)C2(c3ccccc3)C(=O)C1(c1ccccc1)C(c1ccccc1)=C2c1ccccc1 (stereo unspecified) | 16500 | 31.5 | 24.2 | > 100 | 19.8 | 40.2 | 27.8 | 89.7 | 19.6 | 40.9 | 11.7 | 29.5 | – | – | 22.9 | 71.2 | – | – | 19.5 | 36.3 |
| COc1ccc(Cn2cc(COc3cc(/C=C/C(=O)c4cc(OC)c(OC)c(OC)c4)ccc3OC)nn2)cc1 | 31300 | > 100 | 3.8 | > 100 | 3.63 | > 100 | 3.22 | > 100 | 10.3 | > 100 | 5.99 | > 100 | 3.65 | 9.68 | – | – | 7450 | > 100 | 3.02 | 12.9 |
| O=C(Oc1ccccc1)N(c1ccccc1)c1ccccc1 | 21900 | 84.7 | 31.1 | > 100 | 38.8 | > 100 | 19.9 | 78.6 | 26.4 | 83 | 40.7 | > 100 | 36.9 | > 100 | 18.8 | 58.7 | – | – | 30.4 | > 100 |
| Nc1ccccc1C#C/C=C\C#Cc1ccccc1C#CCO | 1830 | 6.9 | 7.41 | 18.7 | 4.4 | 35.8 | 1.36 | 8.97 | 11.4 | 45.2 | 23.9 | > 50 | – | – | 6.8 | 16.7 | 15300 | > 50 | 10.8 | 27.1 |
| Cc1ccc(N)cc1[As]=[As]c1cc(N)ccc1C (stereo unspecified) | 1700 | 3.58 | 1.35 | 2.69 | 1.27 | 3.2 | 1.47 | 2.88 | 1.25 | 2.54 | 1.68 | 3.24 | – | – | 4.6 | 12.3 | 1390 | 2.83 | 1.39 | 2.76 |
| CC[C@H](C)[C@@H]([C@@H](CC(=O)N1CCC[C@H]1[C@H](OC)[C@@H](C)C(=O)NCCc1ccccc1)OC)N(C)C(=O)C(NC(=O)[C@H](C(C)C)N(C)C)C(C)C (stereo partly specified) | – | > 10 | – | 0.0068 | – | > 10 | – | > 10 | – | > 10 | – | – | – | 0.00163 | 0.000281 | – | – | > 10 | – | – |
| Cc1ccc(S(=O)(=O)OCOS(=O)(=O)c2ccc(C)cc2)cc1 | – | > 100 | – | > 100 | – | > 100 | – | > 100 | – | > 100 | – | > 100 | – | – | – | > 100 | – | > 100 | – | > 100 |
| Cc1ccc2c(c1)-c1c3c(nn1C)-c1ccccc1SC3O2 (stereo unspecified) | – | > 100 | – | > 100 | – | > 100 | – | > 100 | – | > 100 | – | – | – | > 100 | – | > 100 | – | > 100 | – | > 100 |
| COc1cc(C(=O)/C=C/c2cc(-c3ccc4c(c3)OCO4)n[nH]2)cc(OC)c1OC | 2900 | 10.3 | 1.21 | 2.49 | 1.62 | 3.8 | – | – | 2.95 | 9.46 | 2.34 | 11.7 | 2.45 | 6.53 | 2.58 | 10.1 | 1920 | 4.18 | 1.33 | 2.98 |
